Experimental data: US7387779B2, “Anti-angiogenic proteins and fragments and methods of use thereof” (Beth Israel Deaconess Medical Center, priority 1998, dated 2008)

B1: Tum-3: residues 133 to 244 of Tumstatin (SEQ ID NO:24) (protein)
chain: AVHSQTTDIPPCPHGWISLWKGFSFIMFTSAGSEGTGQALASPGSCLEEFRASPFLECHGRGTCNYYSNSYSFWLASLNPERMFRKPIPSTVKAGELEKIISRCQVCMKKRH
modifications: Tum-3 (amino acids 133-244 of SEQ ID NO10)

Columns and labels:
PC3 tumor xenografts [1] = test: PC3 human prostate tumor xenograft (Example 59); type: in vivo, nude NCRNU mice; details: 3 weeks; for Final Tumor Weight (V/Vo) ± SEM: control 1070.0 ± 132.5
Description: (§1) For tests involving the MDAMB-435 model, female nude NCRNU mice, 5-6 weeks old, weighing approximately 20 grams, were implanted with 2×10^6 MDAMB-435 cells into the subaxillary mammary fat pad. For tests involving the PC3 model, male nude NCRNU mice, 5-6 weeks old, weighing approximately 25 g were implanted with 2×10^6 PC3 cells into the dorsal subcutis. When the tumors were 100 mm^3 (for the MDAMB-435 model), or 60 mm^3 (for the PC3 model), the animals were pair-matched into treatment and control groups.
(§2) Each group contained 6-7 tumored mice, each of which was ear-tagged and followed individually throughout the experiment. Initial doses of peptide or vehicle control were given on the day of pair-matching (Day 0), and were administered daily via intraperitoneal (i.p.) injection at doses indicated. Mice were weighed weekly, and tumor measurements were taken by calipers weekly, starting on Day 0. These tumor measurements were converted to tumor volume by a well-known formula, (V=W^2×L/2) and mean tumor volumes were plotted against time. Mice were euthenized at the end of the treatment period. Upon termination, the mice were weighed, sacrificed and their tumors were excised. The mean tumor weight per group was calculated, and the mean treated tumor volume/control tumor volume×100 was subtracted from 100% to give the tumor growth inhibition (TGI) for each group.

[2] = tested on: MDAMB-435 tumor xenografts; test: MDAMB-435 human breast tumor xenograft (Example 59); type: in vivo, nude NCRNU mice; details: 3 weeks; for Final Tumor Weight (V/Vo) ± SEM: control 468.5 ± 48.06
Description: as §1, §2

PC3 tumor xenografts [3] = test: PC3 human prostate tumor xenograft (Example 58); type: in vivo, nude NCRNU mice; details: 5.0 mg/kg i.p. daily, 3 weeks
Experimental: Male nude NCRNU mice, 5-6 weeks old, weighing approximately 25 grams, 6 were implanted with 2×10^6 PC3 cells into the dorsal subcutis. When the tumors were 60 mm^3, the animals were pair-matched into treatment and control groups. Each group contained 6-7 tumored mice, each of which was ear-tagged and followed individually throughout the experiment. Initial doses of peptide or vehicle control were given on the day of pair-matching (Day 0), and were administered via intraperitoneal (i.p.) injection at doses indicated. Mice were weighed weekly, and tumor measurements were taken by calipers weekly. These tumor measurements were converted to tumor volume by a well-known formula, (V=W^2×L/2), and mean tumor volumes were plotted against time. Mice were euthenized at the end of the treatment period. Upon termination, the mice were weighed, sacrificed and their tumors were excised. The mean tumor weight per group was calculated, and the value of mean treated tumor volume or volume ratio/mean control tumor volume or volume ratio×100 was subtracted from 100% to give the tumor growth inhibition (TG1) for each group. All groups received injections I.P. daily, except for two T8-treated groups, which were treated twice per week and once a week, respectively.

Caspase-3 in C-PAE cells = test: Caspase-3 assay; type: cell-based, bovine
Experimental: Tumstatin also altered cell morphology of C-PAE cells as monitored by phase contrast microscopy. After treating cells with 20 μg/ml of Tumstatin in the presence of 10% FCS for 24 hours on fibronectin-coated plates, the typical morphological features of apoptotic cells, membrane blebbing, cytoplasmic shrinkage, and chromatin condensation could be observed. […] Caspase-3 assay: Caspase-3 (CPP32) is an intracellular protease activated at the early stage of apoptosis, and initiates cellular breakdown by degrading structural and DNA repair proteins (Casciola-Rosen, L. et al., 1996, J. Exp. Med. 183:1957-64; Salvesen, G. S. et al., 1997, Cell 91:443-46). The protease activity of Caspase-3 was measured spectrophotometrically by detection of the chromophore (p-nitroanilide) cleaved from the labeled substrate (DEVD-pNA). C-PAE cells or PC-3 cells (0.5×10^6 per well) were plated onto a 6-well plate precoated with fibronectin (10 μg/ml) in DMEM supplemented with 10% FCS, and incubated overnight. The next day, the medium was replaced with DMEM containing 2% FCS and then incubated overnight at 37° C. Then cells were then stimulated with bFGF (3 ng/ml) in DMEM supplemented with 2% FCS, and also containing either TNF-α (80 ng/ml, positive control) or Tumstatin (10 μg/ml), and incubated for 24 hours. Controls received PBS buffer. After 24 hours, the supernatant cells were collected, and attached cells were trypsinized and combined with the supernatant cells. Cells were counted and resuspended in cell lysis buffer (Clontech) at a concentration of 4×10^7 cells/ml. The rest of the protocol followed the manufacturer's instructions (Clontech). A specific inhibitor of Caspase-3, DEVD-fmk (Asp-Glu-Val-Asp-fluoromethyl ketone) was used to confirm the specificity of the assay. The absorbance was measured in a microplate reader (Bio-Rad, Hercules, Calif., USA) at 405 nm. The assay was repeated three times for each cell type.
Apoptosis was also evaluated by measuring Caspase-3 activity as described in Example 27, above. The results are shown in FIG. 35, which is a histogram showing Caspase-3 activity as a measure of absorbance at OD405 (y-axis) of C-PAE cells treated (x-axis) with 5 μg/ml Tum-1, Tum-2, Tum-3 or Tum-4, or 80 ng/ml TNF-α or PBS buffer (control).
Caspase-3 activity was also assayed as described above. DEVD-fmk, a specific caspase-3 inhibitor, was used as an internal control to show specificity of Tumstatin-44-131. TNF-α (80 ng/ml) was used as a positive control. The experiments were repeated three times.
The protease activity of Caspase-3 in cells treated with T3 peptide was measured spectrophotometrically by detection of the chromophore (p-nitroanilide) cleaved from the labeled substrate (DEVD-pNA). […] In PC-3 nonendothelial cells, there was no difference in Caspase-3 activity between control treatments and T3 peptide-treated cells.

C-PAE cells = test: Endothelial cell proliferation, methylene blue staining; type: cell-based, bovine
Experimental: A methylene blue staining test was also done. 3,100 cells were added to each well and treated as above, and cells were then counted using the method of Oliver et al. (Oliver, M. H. et al., 1989, J. Cell. Science 92:513-18). All wells were washed one time with […] of 1×PBS and the cells were fixed by adding […] of 10% formalin in neutral-buffered saline (Sigma Chemical Co., St. Louis, Mo., USA) for 30 minutes at room temperature. After formalin removal cells were stained with a solution of 1% methylene blue (Sigma Chemical Co.) in 0.01 M borate buffer (pH 8.5) for 30 minutes at room temperature. After removal of staining solution, the wells were washed 5 times with […] of 0.01 M borate buffer (pH 8.5). Methylene blue was extracted from the cells with […] of 0.1N HCi/ethanol (1:1 mixture) for 1 hour at room temperature. The amount of methylene blue staining was measured on a microplate reader (BioRad, Hercules, Calif., USA) using light absorbance at 655 nm wavelength.
In the methylene-blue staining method, 7000 cells were plated into each well of a 96-well plate, and treated as described above. Cells were then counted using the method of Oliver et al. (1989, J. Cell. Sci. 92:513-8). After 48 hours of treatment, all wells were washed with 100 μl of PBS, and the cells fixed with 10% formalin in neutral-buffered saline (Sigma Chemical Co., St. Louis, Mo., USA). The cells were then stained with 1% methylene blue (Sigma) in 0.01M borate buffer, pH 8.5. Wells were washed with 0.01M borate buffer, and the methylene blue extracted from the cells with 0.1N HCl/ethanol, and the absorbance measured in a microplate reader (Bio-Rad, Hercules, Calif., USA) at 655 nm. Polymyxin B (Sigma) at a final concentration of 5 μg/ml was used to inactivate endotoxin (Liu, S. et al., 1997, Clin. Biochem. 30:455-63).
Proliferation of endothelial cells (C-PAE cells) and WM-164 melanoma cells was assayed by methylene blue staining, as described above in Examples 25 and 34. The results are shown in FIGS. 33A and 33B, which are a pair of graphs showing the effect of increasing concentration (x-axis) of Tumstatin, Tum-1, Tum-2, Tum-3 and Tum-4 on the relative number (y-axis) of C-PAE cells (FIG. 33A) and WM-164 cells (FIG. 33B). […] Tum-4, however, did have anti-proliferative activity in this cell line. […] Only Tum-4 inhibited WM-164 melanoma cells.
For the proliferation assay, Canstatin, Can-1 and Can-2 soluble proteins (0.1-20.0 μg/ml) were added to the growth medium of proliferating C-PAE cells, which were stimulated with 10% FBS in DMEM, in addition to 5 ng/ml bFGF and 3 ng/ml VEGF. The results are shown in FIG. 40, which is a graph showing the effect of increasing concentrations of Canstatin (♦), Can-1 (▪) and Can-2 (▴) (x-axis) on the relative cell number (y-axis) of C-PAE cells. Each concentration of each protein was tested in quadruplicate. Bovine serum albumin (BSA) was used as a control treatment. Polymyxin B was used to control for endotoxin interference, and no differences were found between assays run with and without polymyxin B added to the medium. Cells were allowed to proliferate for 48 hours, and were then fixed, stained and the density read with a Bio-Rad plate reader (Bio-Rad, Hercules, Calif., USA). Canstatin and Can-1 both caused dose-dependent decreases in the percent cell number, and both reduced the number of cells by 80% at concentrations of 5 μg/ml and higher.
An endothelial cell proliferation assay was used to compare the activity of Tumstatin and some of the deletion mutants. Recombinant Tumstatin (28 kDa), Tumstatin-44-131 (12 kDa) and T3 peptide were used in a methylene blue proliferation assay in equimolar concentrations.

Row | Molecule | % Tumor growth inhibition (PC3 tumor xenografts [1]; 1.0 mg/kg i.p. daily) [%] | Final Tumor Weight (V/Vo) ± SEM (PC3 tumor xenografts [1]; 1.0 mg/kg i.p. daily) | % Tumor growth inhibition (PC3 tumor xenografts [1]; 5.0 mg/kg i.p. daily) [%] | Final Tumor Weight (V/Vo) ± SEM (PC3 tumor xenografts [1]; 5.0 mg/kg i.p. daily) | Final Tumor Weight (V/Vo) ± SEM ([2]; 1.0 mg/kg i.p. daily) | Final Tumor Weight (V/Vo) ± SEM ([2]; 5.0 mg/kg i.p. daily) | % Tumor growth inhibition ([2]; 5.0 mg/kg i.p. daily) | further results
1 | KQRFTTMPFLFDNVNDVDNFASRNDYS (P2 (amino acids 68-94 of SEQ ID NO10; lysine has been substituted for the leucine residue at position 68 of the full-length Tumstatin molecule, and aspartic acid has been substituted for the cysteine residues at positions 79 and 85)) | 31.6 | 732.4 ± 85.96 | 15.9 | 899.7 ± 60.25 | 344.7 ± 34.20 | 380.5 ± 25.91 | – | % Tumor growth inhibition ([2]; 1.0 mg/kg i.p. daily): 26.4%
2 | TFNCVKNYQRLDFTSRFVMDSCANFPN (Scrambled peptide SP2) [reference compound] | – | – | – | 931.0 ± 112.3 | – | 527.2 ± 57.89 | no tumor growth inhibition | % Tumor growth inhibition (PC3 tumor xenografts [3]): 18.7%; Final Tumor Weight (V/Vo) ± SEM (PC3 tumor xenografts [3]; T7 vehicle 5.626 ± 0.38, T8 vehicle 6.278 ± 1.483): 5.097 ± 0.185
3 | KQRFTTMPFLFSNVNDVSNFASRNDYS (T8-3 (amino acids 68-94 of SEQ ID NO10; lysine has been substituted for the leucine residue at position 68 of the full-length Tumstatin molecule, and serine has been substituted for the cysteine residues at positions 79 and 85)) | 28.5 | 765.1 ± 133.6 | 35.4 | 691.5 ± 130.8 | 370.1 ± 68.17 | 272.4 ± 34.86 | 41.9% | –
4 | CC(C)[C@H](NC(=O)[C@H](CCC(=O)O)NC(=O)[C@@H](N)CC(=O)O)C(=O)N[C@@H](CC(=O)O)C(=O)CF [DEVD-fmk, Asp-Glu-Val-Asp-fluoromethyl ketone, reference compound] | – | – | – | – | – | – | – | effect of specific Caspase-3 inhibitor on protease activity (Caspase-3 in C-PAE cells): decreased the protease activity to baseline
5 | B1 | – | – | – | – | – | – | – | inhibition of proliferation of C-PAE cells (C-PAE cells; 15 μg/ml): did not inhibit; Relative Cell No. (%) C-PAE (C-PAE cells; 20% FCS, 15 μg/ml recombinant protein): 94.9 ± 3.1%; effect on Caspase-3 activity (Caspase-3 in C-PAE cells; 5 μg/ml): did not
